# Read-outs that look alike come from different tables or passages of the source.
# Legend:
# NS3/NS4 complexes = NS3/NS4 complexes (Hepatitis C virus genotype 1a, UniProt P27958); assay: NS3/NS4 inhibition activity (IC50); format: biochemical
# Source text: NS3-NS4 inhibition activity can be determined using known assay methods. For example, NS3/NS4 complexes may be formed and inhibitory concentrations of test compounds determined as described in U.S. Patent Application Publication Number 2007/0054842 paragraph numbers 1497-1509, which is incorporated herein by reference in its entirety. Similarly, hepatitis C replicon EC50 may be determined using known assay methods such as described in U.S. Patent Application Publication Number 2007/0054842 paragraph numbers 1510-1515. Assays may be conducted at ambient temperature (23° C.) in assay buffer containing 50 mM Tris-HCl, pH 7.5, 15% glycerol, 0.6 mM Lauryldimethylamine Oxide (LDAO), 25 μM NS4A peptide, and 10 mM Dithiothreitol (DTT).
# hepatitis C replicon = hepatitis C replicon EC50; format: cell-based; details: Hepatitis C virus; Table 2; hepatitis C replicon; read-out: EC50
# Source text: NS3-NS4 inhibition activity can be determined using known assay methods.
# Sequence of NS3/NS4 complexes (P27958 1027-1657): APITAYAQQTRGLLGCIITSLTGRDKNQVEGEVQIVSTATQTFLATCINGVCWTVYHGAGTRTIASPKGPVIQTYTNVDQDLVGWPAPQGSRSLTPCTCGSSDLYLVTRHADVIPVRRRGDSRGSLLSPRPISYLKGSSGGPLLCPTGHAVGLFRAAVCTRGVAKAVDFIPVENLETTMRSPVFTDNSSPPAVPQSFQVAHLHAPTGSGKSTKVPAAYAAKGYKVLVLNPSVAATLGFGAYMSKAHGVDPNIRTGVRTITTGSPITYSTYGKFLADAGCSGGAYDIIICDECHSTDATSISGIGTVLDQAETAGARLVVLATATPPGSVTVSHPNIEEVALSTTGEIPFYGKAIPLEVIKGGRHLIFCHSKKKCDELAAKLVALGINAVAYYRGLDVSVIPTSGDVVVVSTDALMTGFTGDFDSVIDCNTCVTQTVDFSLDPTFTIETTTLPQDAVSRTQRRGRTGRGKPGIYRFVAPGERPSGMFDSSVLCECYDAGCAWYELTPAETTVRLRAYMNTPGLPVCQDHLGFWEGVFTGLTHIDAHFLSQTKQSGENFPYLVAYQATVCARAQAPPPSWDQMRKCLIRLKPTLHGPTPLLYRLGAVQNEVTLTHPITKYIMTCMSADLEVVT
# Sequence of NS3/NS4 complexes (P27958 1658-1711): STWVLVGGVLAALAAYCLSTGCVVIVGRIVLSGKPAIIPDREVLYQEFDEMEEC
smiles,measurement,setting,value
O=C1N[C@]2(C(=O)O)C[C@H]2/C=C\CCCCC[C@H](Nc2ccc(C(F)(F)F)cc2)C(=O)N2C[C@H](Oc3nc4ccccc4s3)C[C@@H]12 [Compound 329],IC50,"NS3/NS4 complexes; Table 2, read-out: IC50",75 to 500 nM
CC(C)(C)OC(=O)N[C@H]1CCCCC/C=C\[C@@H]2C[C@@]2(C(=O)N2CCC[C@H]2C(=O)NCc2ccccc2)NC(=O)[C@@H]2C[C@@H](O)CN2C1=O [Compound 1056],IC50,"NS3/NS4 complexes; IC50, Table 3",> 100 nM
Cc1ccc2nc(O[C@@H]3C[C@H]4C(=O)N[C@]5(C(=O)O)C[C@H]5/C=C\CCCCC[C@H](Nc5cc(F)cc(C(F)(F)F)c5)C(=O)N4C3)sc2c1 [Compound 323],IC50,"NS3/NS4 complexes; Table 2, read-out: IC50",< 10 nM
COc1ccc2c(O[C@@H]3C[C@H]4C(=O)N[C@]5(C(=O)NS(=O)(=O)C6(C)CC6)C[C@H]5/C=C\CCCCC[C@H](Nc5ccc(NC(C)=O)cc5)C(=O)N4C3)cc(-c3nc(C(C)C)cs3)nc2c1C [Compound 485],EC50,hepatitis C replicon,10 to 75 nM
CC(C)(C)OC(=O)N[C@H]1CCCCC/C=C\[C@@H]2C[C@@]2(C(=O)N2CCC[C@H]2C(=O)NCc2ccccc2)NC(=O)[C@@H]2C[C@@H](OC(=O)N3Cc4cccc(F)c4C3)CN2C1=O [Compound 1054],IC50,"NS3/NS4 complexes; IC50, Table 3",> 100 nM
CC(C)(C)OC(=O)N[C@H]1CCCCC/C=C\[C@@H]2C[C@@]2(C(=O)O)NC(=O)[C@@H]2C[C@@H](Oc3nc4cccc(F)c4o3)CN2C1=O [Compound 1042],IC50,"NS3/NS4 complexes; Table 3, read-out: IC50",10 to 100 nM
CC(C)(C)OC(=O)N[C@H]1CCCCC/C=C\[C@@H]2C[C@@]2(C(=O)NOc2ccccc2)NC(=O)[C@@H]2C[C@@H](Oc3nc4ccc(F)cc4s3)CN2C1=O [Compound 1021],IC50,"NS3/NS4 complexes; Table 3, read-out: IC50",10 to 100 nM
Cc1ccc2oc(O[C@@H]3C[C@H]4C(=O)N[C@]5(C(=O)O)C[C@H]5/C=C\CCCCC[C@H](NC(=O)OC(C)(C)C)C(=O)N4C3)nc2c1 [Compound 1044],IC50,"NS3/NS4 complexes; Table 3, read-out: IC50",> 100 nM
CN(C)C(=O)O[C@@H]1C[C@H]2C(=O)N[C@]3(C(=O)NS(=O)(=O)CC(=O)Nc4ccccc4)C[C@H]3/C=C\CCCCC[C@H](NC(=O)OC(C)(C)C)C(=O)N2C1 [Compound 1095],IC50,"NS3/NS4 complexes; Table 3, read-out: IC50",> 100 nM
CC(C)(C)OC(=O)N[C@H]1CCCCC/C=C\[C@@H]2C[C@@]2(C(=O)NS(=O)(=O)CC(=O)Nc2ccccc2)NC(=O)[C@@H]2C[C@@H](O)CN2C1=O [Compound 1092],IC50,"NS3/NS4 complexes; Table 3, read-out: IC50",> 100 nM
CC(=O)O[C@@H]1C[C@H]2C(=O)N[C@]3(C(=O)NS(=O)(=O)CC(=O)Nc4ccccc4)C[C@H]3/C=C\CCCCC[C@H](NC(=O)OC(C)(C)C)C(=O)N2C1 [Compound 1098],IC50,"NS3/NS4 complexes; Table 3, read-out: IC50",> 100 nM
CN(C)C(=O)O[C@@H]1C[C@H]2C(=O)N[C@]3(C(=O)NCCC(=O)NCc4ccccc4)C[C@H]3/C=C\CCCCC[C@H](NC(=O)OC(C)(C)C)C(=O)N2C1 [Compound 1067],IC50,"NS3/NS4 complexes; Table 3, read-out: IC50",> 100 nM
CO[C@@H]1C[C@H]2C(=O)N[C@]3(C(=O)N4CCC[C@@H]4C(=O)NCc4ccccc4)C[C@H]3/C=C\CCCCC[C@H](NC(=O)OC(C)(C)C)C(=O)N2C1 [Compound 1089],IC50,"NS3/NS4 complexes; IC50, Table 3",> 100 nM
CN(C)C(=O)O[C@@H]1C[C@H]2C(=O)N[C@]3(C(=O)NCC(=O)NCc4ccccc4)C[C@H]3/C=C\CCCCC[C@H](NC(=O)OC(C)(C)C)C(=O)N2C1 [Compound 1066],IC50,"NS3/NS4 complexes; IC50, Table 3",> 100 nM
CC(C)n1c(O[C@@H]2C[C@H]3C(=O)N[C@]4(C(=O)NS(=O)(=O)N(C)C)C[C@H]4/C=C\CCCCC[C@H](NC(=O)OC(C)(C)C)C(=O)N3C2)nc2ccncc21 [Compound 1145],IC50,"NS3/NS4 complexes; Table 3, read-out: IC50",< 10 nM
O=C1N[C@]2(C(=O)O)C[C@H]2/C=C\CCCCC[C@H](Nc2ccc(F)c(F)c2)C(=O)N2C[C@H](Oc3nc4ccccc4s3)C[C@@H]12 [Compound 343],IC50,"NS3/NS4 complexes; Table 2, read-out: IC50",75 to 500 nM
O=C1N[C@]2(C(=O)O)C[C@H]2/C=C\CCCCC[C@H](Nc2cc(F)cc(F)c2)C(=O)N2C[C@H](Oc3nc4ccccc4s3)C[C@@H]12 [Compound 324],IC50,"NS3/NS4 complexes; Table 2, read-out: IC50",10 to 75 nM
CC(C)(C)OC(=O)N[C@H]1CCCCC/C=C\[C@@H]2C[C@@]2(C(=O)N2CCC[C@@H]2C(=O)NCc2ccccc2)NC(=O)[C@@H]2C[C@@H](O)CN2C1=O [Compound 1087],IC50,"NS3/NS4 complexes; IC50, Table 3",> 100 nM
CC(C)(C)OC(=O)N[C@H]1CCCCC/C=C\[C@@H]2C[C@@]2(C(=O)O)NC(=O)[C@@H]2C[C@@H](Oc3nc4ccc(Cl)cc4o3)CN2C1=O [Compound 1041],IC50,"NS3/NS4 complexes; Table 3, read-out: IC50",> 100 nM
CC(C)(C)OC(=O)N[C@H]1CCCCC/C=C\[C@@H]2C[C@@]2(C(=O)NCC(=O)NCc2ccccc2)NC(=O)[C@@H]2C[C@@H](O)CN2C1=O [Compound 1055],IC50,"NS3/NS4 complexes; IC50, Table 3",> 100 nM
Cc1ccc2nc(O[C@@H]3C[C@H]4C(=O)N[C@]5(C(=O)NOc6ccccc6)C[C@H]5/C=C\CCCCC[C@H](NC(=O)OC(C)(C)C)C(=O)N4C3)sc2c1 [Compound 1024],IC50,"NS3/NS4 complexes; Table 3, read-out: IC50",> 100 nM
CC(C)(C)OC(=O)N[C@H]1CCCCC/C=C\[C@@H]2C[C@@]2(C(=O)NOc2ccccc2)NC(=O)[C@@H]2C[C@@H](Oc3nc4ccc(Br)cc4s3)CN2C1=O [Compound 1022],IC50,"NS3/NS4 complexes; Table 3, read-out: IC50",> 100 nM
O=C1N[C@]2(C(=O)O)C[C@H]2/C=C\CCCCC[C@H](Nc2cccc(F)c2)C(=O)N2C[C@H](Oc3nc4ccccc4s3)C[C@@H]12 [Compound 123],IC50,"NS3/NS4 complexes; Table 2, read-out: IC50",75 to 500 nM
CO[C@@H]1C[C@H]2C(=O)N[C@]3(C(=O)NCC(=O)NCc4ccccc4)C[C@H]3/C=C\CCCCC[C@H](NC(=O)OC(C)(C)C)C(=O)N2C1 [Compound 1063],IC50,"NS3/NS4 complexes; IC50, Table 3",> 100 nM
CN(C)C(=O)O[C@@H]1C[C@H]2C(=O)N[C@]3(C(=O)N4CCC[C@H]4C(=O)NCc4ccccc4)C[C@H]3/C=C\CCCCC[C@H](NC(=O)OC(C)(C)C)C(=O)N2C1 [Compound 1068],IC50,"NS3/NS4 complexes; IC50, Table 3",> 100 nM
COc1ccc2nc(O[C@@H]3C[C@H]4C(=O)N[C@]5(C(=O)NOc6ccccc6)C[C@H]5/C=C\CCCCC[C@H](NC(=O)OC(C)(C)C)C(=O)N4C3)sc2c1 [Compound 1025],IC50,"NS3/NS4 complexes; Table 3, read-out: IC50",> 100 nM
CC(C)(C)OC(=O)N[C@H]1CCCCC/C=C\[C@@H]2C[C@@]2(C(=O)O)NC(=O)[C@@H]2C[C@@H](Oc3nc4cc(F)ccc4o3)CN2C1=O [Compound 1043],IC50,"NS3/NS4 complexes; Table 3, read-out: IC50",10 to 100 nM
COc1ccc2c(O[C@@H]3C[C@H]4C(=O)N[C@]5(C(=O)NS(=O)(=O)C6(C)CC6)C[C@H]5/C=C\CCCCC[C@H](Nc5cc(F)cc(C(F)(F)F)c5)C(=O)N4C3)cc(-c3ccccc3)nc2c1 [Compound 357],IC50,"NS3/NS4 complexes; Table 2, read-out: IC50",10 to 75 nM
CNC(=O)COc1ccccc1S(=O)(=O)NC(=O)[C@@]12C[C@H]1/C=C\CCCCC[C@H](NC(=O)OC(C)(C)C)C(=O)N1C[C@H](OC(=O)N(C)C)C[C@H]1C(=O)N2 [Compound 1097],IC50,"NS3/NS4 complexes; Table 3, read-out: IC50",< 10 nM
CC(C)(C)OC(=O)N[C@H]1CCCCC/C=C\[C@@H]2C[C@@]2(C(=O)NOc2ccccc2)NC(=O)[C@@H]2C[C@@H](Oc3nc4ccccc4s3)CN2C1=O [Compound 1020],IC50,"NS3/NS4 complexes; Table 3, read-out: IC50",10 to 100 nM
O=C1N[C@]2(C(=O)O)C[C@H]2/C=C\CCCCC[C@H](Nc2cc(F)cc(C(F)(F)F)c2)C(=O)N2C[C@H](Oc3nc4ccc(Cl)cc4s3)C[C@@H]12 [Compound 322],IC50,"NS3/NS4 complexes; Table 2, read-out: IC50",10 to 75 nM
CO[C@@H]1C[C@H]2C(=O)N[C@]3(C(=O)N4CCC[C@H]4C(=O)NCc4ccccc4)C[C@H]3/C=C\CCCCC[C@H](NC(=O)OC(C)(C)C)C(=O)N2C1 [Compound 1064],IC50,"NS3/NS4 complexes; IC50, Table 3",> 100 nM
CN(C)C(=O)O[C@@H]1C[C@H]2C(=O)N[C@]3(C(=O)N4CCC[C@@H]4C(=O)NCc4ccccc4)C[C@H]3/C=C\CCCCC[C@H](NC(=O)OC(C)(C)C)C(=O)N2C1 [Compound 1090],IC50,"NS3/NS4 complexes; IC50, Table 3",> 100 nM
O=C1N[C@]2(C(=O)O)C[C@H]2/C=C\CCCCC[C@H](Nc2cc(Cl)cc(Cl)c2)C(=O)N2C[C@H](Oc3nc4ccccc4s3)C[C@@H]12 [Compound 344],IC50,"NS3/NS4 complexes; Table 2, read-out: IC50",75 to 500 nM
COc1ccc2c(O[C@@H]3C[C@H]4C(=O)N[C@]5(C(=O)O)C[C@H]5/C=C\CCCCC[C@H](Nc5cccc(F)c5)C(=O)N4C3)cc(-c3nc(C(C)C)cs3)nc2c1C [Compound 448],IC50,"NS3/NS4 complexes; Table 2, read-out: IC50",< 10 nM
CC(=O)O[C@@H]1C[C@H]2C(=O)N[C@]3(C(=O)NCC(=O)NCc4ccccc4)C[C@H]3/C=C\CCCCC[C@H](NC(=O)OC(C)(C)C)C(=O)N2C1 [Compound 1060],IC50,"NS3/NS4 complexes; IC50, Table 3",> 100 nM
CC(=O)O[C@@H]1C[C@H]2C(=O)N[C@]3(C(=O)N4CCC[C@@H]4C(=O)NCc4ccccc4)C[C@H]3/C=C\CCCCC[C@H](NC(=O)OC(C)(C)C)C(=O)N2C1 [Compound 1088],IC50,"NS3/NS4 complexes; IC50, Table 3",> 100 nM
O=C1N[C@]2(C(=O)O)C[C@H]2/C=C\CCCCC[C@H](Nc2cc(F)cc(C(F)(F)F)c2)C(=O)N2C[C@H](Oc3nc4ccccc4s3)C[C@@H]12 [Compound 321],IC50,"NS3/NS4 complexes; Table 2, read-out: IC50",10 to 75 nM
CC(=O)O[C@@H]1C[C@H]2C(=O)N[C@]3(C(=O)NCCC(=O)NCc4ccccc4)C[C@H]3/C=C\CCCCC[C@H](NC(=O)OC(C)(C)C)C(=O)N2C1 [Compound 1059],IC50,"NS3/NS4 complexes; Table 3, read-out: IC50",> 100 nM
CC(C)(C)OC(=O)N[C@H]1CCCCC/C=C\[C@@H]2C[C@@]2(C(=O)NOc2ccccc2)NC(=O)[C@@H]2C[C@@H](Oc3nc4ccc(Cl)cc4s3)CN2C1=O [Compound 1023],IC50,"NS3/NS4 complexes; Table 3, read-out: IC50",> 100 nM
O=C1N[C@]2(C(=O)O)C[C@H]2/C=C\CCCCC[C@H](Nc2ccc3ccccc3c2)C(=O)N2C[C@H](Oc3nc4ccccc4s3)C[C@@H]12 [Compound 327],IC50,"NS3/NS4 complexes; Table 2, read-out: IC50",10 to 75 nM
COc1cccc(N[C@H]2CCCCC/C=C\[C@@H]3C[C@@]3(C(=O)O)NC(=O)[C@@H]3C[C@@H](Oc4nc5ccccc5s4)CN3C2=O)c1 [Compound 132],IC50,"NS3/NS4 complexes; Table 2, read-out: IC50",75 to 500 nM
